Results on nine molecules are retold here after patent US11306102B2, “1,3-di-substituted ketene compound and application thereof” (BEBETTER MED INC., priority 2017, dated 2022).

The target in one data set is T1, PPARα (Homo sapiens, UniProt Q07869).
T1 construct: expressed in transfected cells; host or cells: Hela cells
T1 sequence (Q07869 1-468): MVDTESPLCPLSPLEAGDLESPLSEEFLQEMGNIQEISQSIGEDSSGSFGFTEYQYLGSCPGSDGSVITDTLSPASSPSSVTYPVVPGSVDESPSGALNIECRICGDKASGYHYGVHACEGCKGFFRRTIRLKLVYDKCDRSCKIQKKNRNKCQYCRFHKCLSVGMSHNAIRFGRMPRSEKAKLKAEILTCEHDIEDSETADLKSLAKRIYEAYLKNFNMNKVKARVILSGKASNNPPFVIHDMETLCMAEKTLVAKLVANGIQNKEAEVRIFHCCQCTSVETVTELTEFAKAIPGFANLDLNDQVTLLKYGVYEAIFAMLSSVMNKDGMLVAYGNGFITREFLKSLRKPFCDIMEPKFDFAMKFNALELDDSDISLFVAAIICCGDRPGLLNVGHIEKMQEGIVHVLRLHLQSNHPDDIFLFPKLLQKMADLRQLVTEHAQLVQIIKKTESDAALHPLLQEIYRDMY
Briefly: Hela cell/luciferase reporter gene method, PPARα agonist activity. In kind it is cell-based. To be noted: Hela cells, pPPRE3-TK-Luciferase reporter, 24 hrs incubation; read-out: agonistic activity on PPAα (EC50). The protocol: (§1) This example measures the biological activity of a PPAR agonist using the Hela cell/luciferase reporter gene method.
(§2) The target plasmids PCMV PPARα (Ampicillin+), PCMV PPARγ (Ampicillin+), PCMV PPARδ (Ampicillin+), and pPPRE3-TK-Luciferase (Ampicillin+) were introduced into DH5a competent cells by heat shock treatment, respectively. After being incubated for 1 hour at 37° C. with shaking (180 rpm), the cells were inoculated on LB agar solid medium containing antibiotic Ampicillin, and invertedly cultured at 37° C. for 12-16 hours. Then the monoclonal colony cultured on the medium was taken and inoculated into LB liquid medium for expanded culture. The desired plasmid was extracted from the resulting bacterial solution with a Plasmid Midi Kit (Qiagen; #12143). The plasmid obtained by centrifugation was suspended in TE buffer, and the plasmid concentration was measured and the mixture was stored at −20° C. Hela cells in the exponential phase were seeded in 6-well plates (8-10^5 cells/well), and after 6-8 hours of culture, the cells were transfected using Lipofectamine® 3000 Transfection Reagent (Invitrogen; #L3000015). A plasmid containing a PPAR binding site (peroxisome proliferator response element, PPRE) and a firefly luciferase gene (pPPRE3-TK-Luciferase) and PPAR expression vector were co-transfected into a Hela cell with a total amount of plasmid DNA of 2.5 ug (the mass ratio of each PPAR expression vector is pPPRE:PPARα=6:1, pPPRE:PPARδ=8:1, and pPPRE:PPARγ=2:1) to construct a drug screening cell model for PPAR agonists. PPAR was binded to the ligand and then binded to the peroxisome proliferator response element (PPRE), thereby initiating downstream firefly luciferase expression and its expression intensity was directly proportional to the degree of PPAR activation. The cells after 24 hours transfection were prepared into a cell suspension with a cell concentration of […] by a complete culture solution, and seeded into a 96-well plate with 100 ul per well. After overnight culture, the medium was changed to a medium containing 1% FBS. 10 mM candidate compound stock (1000×) were 4-fold diluted in DMSO for 8 points, then supplemented with medium containing 1% FBS to a final concentration of 50 uM (5×) by addition of 25 μl of 5× compound diluent to each well in different concentration gradients and incubated under 37° C., 5% CO2 incubator for 24 hrs. The 96-well plate was taken out and 30 μl of Bright-Glo™ Luciferase Assay System (Promega #E2620) was added to each well. The Luciferase luminescence intensity was measured by a SynergyH1 full-function microplate detector. The obtained data was used to calculate EC50 using GraphPad Prism 5.0 software to determine the biological activity of the compound.
(§3) The agonistic activity of the compounds synthesized in Examples 1-41 on PPAR is represented by EC50 (see Table 1). EC50 refers to the drug concentration at which the compound has a 50% increase in the agonistic activity of the measured PPAR. The compound numbers in Table 1 correspond to the compound numbers in Examples 1-41.
(In general: Reporter assays use an easily measured gene product as a stand-in for the process of interest.)

Another data set has as its target T2, PPARγ (Homo sapiens, UniProt P37231).
T2 construct: expressed in transfected cells; host or cells: Hela cells
T2 sequence (P37231 1-505): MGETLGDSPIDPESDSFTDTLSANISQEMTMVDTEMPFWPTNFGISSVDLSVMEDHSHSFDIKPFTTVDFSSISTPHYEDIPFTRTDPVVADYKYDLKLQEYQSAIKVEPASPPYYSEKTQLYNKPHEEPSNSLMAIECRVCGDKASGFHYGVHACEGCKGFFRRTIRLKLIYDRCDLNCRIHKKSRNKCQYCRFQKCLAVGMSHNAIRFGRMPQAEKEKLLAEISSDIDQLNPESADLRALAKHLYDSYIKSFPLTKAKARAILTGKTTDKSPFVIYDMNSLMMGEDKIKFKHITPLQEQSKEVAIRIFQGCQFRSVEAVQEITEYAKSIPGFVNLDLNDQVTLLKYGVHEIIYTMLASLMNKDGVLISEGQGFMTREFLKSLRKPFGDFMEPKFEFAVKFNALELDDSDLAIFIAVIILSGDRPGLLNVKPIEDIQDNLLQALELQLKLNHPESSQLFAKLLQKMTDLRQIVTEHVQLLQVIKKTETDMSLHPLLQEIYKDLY
Briefly: Hela cell/luciferase reporter gene method, PPARγ agonist activity. The format is cell-based. As to conditions: Hela cells, pPPRE3-TK-Luciferase reporter, 24 hrs incubation; read-out: agonistic activity on PPARγ (EC50). The protocol: as §1, §2, §3

Another data set has as its target T3, PPARδ (Homo sapiens, UniProt Q03181).
T3 construct: expressed in transfected cells; host or cells: Hela cells
T3 sequence (Q03181 1-441): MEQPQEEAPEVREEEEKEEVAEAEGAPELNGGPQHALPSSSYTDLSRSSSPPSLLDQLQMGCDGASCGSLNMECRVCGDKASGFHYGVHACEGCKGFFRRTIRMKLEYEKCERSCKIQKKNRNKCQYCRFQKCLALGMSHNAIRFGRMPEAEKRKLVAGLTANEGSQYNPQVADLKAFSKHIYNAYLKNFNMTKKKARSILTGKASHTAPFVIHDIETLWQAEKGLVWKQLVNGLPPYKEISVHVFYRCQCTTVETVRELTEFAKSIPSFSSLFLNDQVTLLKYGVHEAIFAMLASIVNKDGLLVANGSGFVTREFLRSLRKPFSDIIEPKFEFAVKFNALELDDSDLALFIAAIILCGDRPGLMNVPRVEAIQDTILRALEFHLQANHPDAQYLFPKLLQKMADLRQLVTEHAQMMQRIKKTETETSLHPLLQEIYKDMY
In words: Hela cell/luciferase reporter gene method, PPARδ agonist activity. In kind it is cell-based. As to conditions: Hela cells, pPPRE3-TK-Luciferase reporter, 24 hrs incubation; read-out: agonistic activity on PPARδ (EC50). On the procedure:
as §1
as §2, with “The desired plasmid was extracted from the resulting bacterial solution with a Plasmid Midi Kit (Qiagen; #12143).” left out

The nature of data set [1]: Pharmacokinetic (PK) experiments after intragastric administration in rats. The format is in vivo, SD rats. To be noted: male, SD, rat, plasma, po, intragastric administration 20 mg/kg. The protocol: Male SD rats, weighing 250-300 grams, were fasted overnight before testing. The test compound was dissolved in 30% sulfobutyl-R-cyclodextrin (SBE-β-CD) and administered intragastrically at a dose of 20 mg/kg. Blood was collected 15 minutes, 30 minutes, and 1, 2, 3, 4, […] and 24 hours after the administration. About 0.3 ml of blood was collected at each time point, placed in a centrifuge tube containing K2-EDTA (dipotassium ethylenediamine tetraacetate) and centrifuged (2,000 g, 10 minutes, 4° C.) to take the plasma, which was stored in an ultra-low temperature refrigerator at −80° C. A 50 μL plasma sample was mixed with 5 μl of internal standard (IS) and extracted with ethyl acetate. The residue was redissolved in acetonitrile after drying under vacuum. The sample was filtered and injected into an LC-MS/MS for analysis.

By EC50 is commonly meant the concentration that produces a half-maximal response. As to `COc1ccc(C(=O)/C=C/c2cc(C)c(OC(C)(C)C(=O)O)c(C)c2)c2occc12` [Compound 1, (E)-2-(4-(3-(4-methoxybenzofuran-7-yl)-3-oxoprop-1-en-1-yl)-2,6-dimethylphenoxy)-2-methylpropanoic acid], the EC50 at PPARα came to 0.42 µM; at PPARγ, 0.172 µM.
With `Cc1cc(/C=C/C(=O)c2cccc3ccoc23)cc(C)c1OC(C)(C)C(=O)O` [Compound 3, (E)-2-(4-(3-(benzofuran-7-yl)-3-oxoprop-1-en-1-yl)-2,6-dimethylphenoxy)-2-methylpropanoic acid], the EC50 at PPARα worked out at 0.453 µM; on PPARγ it was 0.577 µM.
The matching figures for `CSc1ccc(C(=O)/C=C/c2ccc(OC(C)(C)C(=O)O)cc2)c2occc12` [Compound 12, (E)-2-methyl-2-(4-(3-(4-(methylthio)benzofuran-7-yl)-3-oxoprop-1-en-1-yl)phenoxy)propanoic acid]: 0.0998 µM and 0.279 µM.
The corresponding values for `CSc1ccc(C(=O)/C=C/c2cc(C)c(OCC(=O)O)c(C)c2)c2occc12` [Compound 13, (E)-2-(2,6-dimethyl-4-(3-(4-(methylthio)benzofuran-7-yl)-3-oxoprop-1-en-1-yl)phenoxy)acetic acid] are 0.476 µM and 3.41 µM.
The corresponding values for `CSc1ccc(C(=O)/C=C/c2cc(C)c(OC(C)(C)C(=O)O)c(C)c2)c2oc(C)cc12` [Compound 14, (E)-2-(2,6-dimethyl-4-(3-(2-methyl-4-(methylthio)benzofuran-7-yl)-3-oxoprop-1-en-1-yl)phenoxy)-2-methylpropanoic acid] are 0.156 µM and 0.122 µM.
Take `Cc1cc(/C=C/C(=O)c2ccc3sccc3c2)cc(C)c1OC(C)(C)C(=O)O` [Compound 38, (E)-2-(4-(3-(benzo[b]thiophen-5-yl)-3-oxoprop-1-en-1-yl)-2,6-dimethylphenoxy)-2-methylpropanoic acid]: the EC50 is more than 10 µM on PPARα and 0.838 µM on PPARδ.
Consider `Cc1ccc2cc(C(=O)/C=C/c3cc(C)c(OC(C)(C)C(=O)O)c(C)c3)oc2c1` [Compound 50, (E)-2-(2,6-dimethyl-4-(3-(6-methylbenzofuran-2-yl)-3-oxoprop-1-en-1-yl)phenoxy)-2-methylpropanoic acid], for which the EC50 is 0.123 µM on PPARα and 0.167 µM on PPARγ.
`CSc1ccc2cc(C(=O)/C=C/c3ccc(OC(C)(C)C(=O)O)cc3)oc2c1` [Compound 56, (E)-2-methyl-2-(4-(3-(6-(methylthio)benzofuran-2-yl)-3-oxoprop-1-en-1-yl)phenoxy)propanoic acid]: the concentration for a half-maximal effect (EC50) was found to be 0.0839 µM on PPARα and 1.1 µM at PPARγ.
In general, AUC(0-inf) refers to the area under the concentration-time curve extrapolated to infinity. Read a low AUC(0-inf) as low exposure. A word on the AUC(0-t): it is the area under the concentration-time curve up to a stated or last time point. Higher therefore signals more exposure. What is called Cmax is the peak of the concentration-time curve. For orientation: Tmax means the time at which the peak concentration occurs. As to `CSc1ccc(C(=O)/C=C/c2cc(C)c(OC(C)(C)C(=O)O)c(C)c2)cc1` [Elafibranor, reference compound], the EC50 on PPARα is 0.0292 µM. For the same molecule, the concentration for a half-maximal effect (EC50) at PPARγ worked out at 0.0866 µM. Besides, in data set [1], the AUC(0-inf) was 1350 ng·h/mL, the AUC(0-t) stood at 1350 ng·h/mL, the concentration peaked (Cmax) at 1140 ng/mL and the time of peak concentration (Tmax) amounted to 19.8 min. The half-life in data set [1] (read-out: Terminal T1/2 (converted)) is 49.2 min.
